# Results from patent US20140303092A1 (CHIMERIX, INC., priority 2011, published 2014).
# Experiment: Study HDP-CDV-201: safety and tolerability (adverse events, laboratory abnormalities, discontinuations)
# Format: in vivo, human (adult allogeneic HSCT recipients)
# Procedure: Clinical Studies of HDP-CDV were performed and described in detail in the following Examples. For example, HDP-CDV-201 is a placebo-controlled, dose-escalating trial in HSCT CMV (R+) recipients, evaluating the ability of HDP-CDV to prevent or control CMV infection was carried out. Five cohorts were established in which participants or subjects received either placebo or the HDP-CDV orally, in doses ranging from 40 mg weekly (QW) to 200 mg twice weekly (BIW). Subjects who were post-HSCT were enrolled at the time of engraftment and randomized to HDP-CDV or placebo (3 to 1 ratio) and received blinded therapy until approximately 100 day post-transplantation. HDP-CDV doses were 40 mg QW, 100 mg QW, 200 mg QW, 200 mg BIW and 100 mg BIW. Escalation to the next dose was decided by the data monitoring committee after review of the safety data from the previous Cohort. Subjects who developed CMV disease or CMV infection requiring pre-emptive therapy with local standard of care were discontinued from blinded therapy and followed for 4 weeks. Subjects who completed treatment with blinded therapy were followed for 8 weeks post-therapy.
# Data from Study HDP-CDV-201 also provided characterization of the safety and tolerability profile of HDP-CDV when administered for the prevention or control of CMV infection in high risk (R^+) post-HSCT adult subjects.
# The Safety population (SAFETY) included all randomized subjects who took at least one dose of study treatment. This population was used to summarize safety outcomes based on the treatment actually received, in cases where a subject was treated contrary to the randomization schedule.
# The safety and tolerability profile of HDP-CDV, including subject demographics and Baseline characteristics; the AE profile; and laboratory abnormalities of interest were analyzed in the cohorts followed in this investigation.
# Subjects completing the treatment period received a full course of study medication; those completing the entire study attended visits through 8 weeks of follow up. Subjects who discontinued treatment may have done so for protocol specified reasons (e.g. development of clinically significant CMV infection requiring preemptive treatment with excluded anti-CMV medications) or for other reasons (e.g., withdrawal, adverse events, loss to follow-up). The disposition of subjects in Study HDP-CDV-201 during the double-blind, placebo-controlled treatment period (through Week 11) is listed by dosing Cohort in TABLE 23.
# Adverse events were examined by severity to ensure that all safety signals were identified in this study population. Because of the frequency of events in HSCT recipients, particular attention was given to evaluation of Grade 3 […], 4 (severe), and 5 (fatal) adverse events.
# Only those preferred terms for which at least one Grade 3 or higher event was experienced in any treatment group are listed. Cytomegalovirus-related AEs are excluded from this analysis.
# HDP-CDV is a lipid conjugate of CDV. Because CDV is known to have adverse effects on renal function and bone marrow, decreased GFR and persistent neutropenia were identified as AEs of special interest. Key renal and hematological (TABLE 30) laboratory parameters were measured and listed below by Study HDP-CDV-201 treatment groups. TABLE 30 includes abnormal levels of serum creatinine, neutrophils, platelets, WBCs, and hemoglobin and includes data at Screening and during the treatment period.
# A common metric for unit based dosing of medications is by weight (mg/kg). When the distribution of weights was examined for all subjects participating in the study, the median was 78 kg and the lower 25th percentile weight was approximately 65 kg, which translates to a cut-off of ˜3 mg/kg for a 200 mg total weekly dose. Based upon this approach, a cut-off of 3 mg/kg was used to assess the frequency of diarrhea and associated GI AEs reported for the subjects in Cohorts 3 or 4a (TABLE 40).
smiles,measurement,setting,value
CCCCCCCCCCCCCCCCOCCCOP(=O)(O)COC(CO)Cn1ccc(N)nc1=O (stereo not drawn) [HDP-CDV],"TEAE Staphylococcal Bacteremia, Grade 4",200 mg BIW,0
same,"TEAE Staphylococcal Bacteremia, Grade 5",200 mg BIW,0
same,"TEAE Thrombocytopenia, Frequency",200 mg BIW,5 (16.7%)
same,"TEAE Thrombocytopenia, Grade 2",200 mg BIW,2 (6.7%)
same,"TEAE Thrombocytopenia, Grade 3",200 mg BIW,0
same,"TEAE Thrombocytopenia, Grade 4",200 mg BIW,3 (10.0%)
same,"TEAE Thrombocytopenia, Grade 5",200 mg BIW,0
same,"TEAE Vomiting, Frequency",200 mg BIW,8 (26.7%)
same,"TEAE Vomiting, Grade 2",200 mg BIW,4 (13.3%)
same,"TEAE Vomiting, Grade 3",200 mg BIW,0
same,"TEAE Vomiting, Grade 4",200 mg BIW,0
same,"TEAE Vomiting, Grade 5",200 mg BIW,0
same,subjects requiring treatment with steroids during the study,200 mg BIW,83%
same,proportion of subjects with Grade 3 or higher ALT (>5×ULN),200 mg BIW (8 of 30),27.6%
same,dose limiting toxicity,200 mg BIW not tolerable,Diarrhea
same,Subjects Reporting Diarrhea as an AE,"200 mg BIW, n = 30",21 (70.0%)
same,Discontinuation: Death,"200 mg BIW, active treatment period",3 (10%) Subject n (%)
same,Discontinuation: Adverse event,"200 mg BIW, active treatment period through Week 11",13 (43.3%) Subject n (%)
same,"TEAE ALT increased, Frequency",200 mg QW,2 (5.1%)
same,"TEAE ALT increased, Grade 2",200 mg QW,1 (2.6%)
same,"TEAE ALT increased, Grade 3",200 mg QW,1 (2.6%)
same,"TEAE ALT increased, Grade 4",200 mg QW,0
same,"TEAE ALT increased, Grade 5",200 mg QW,0
same,"TEAE AML, Recurrent, Frequency",200 mg QW,0
same,"TEAE AML, Recurrent, Grade 2",200 mg QW,0
same,"TEAE AML, Recurrent, Grade 3",200 mg QW,0
same,"TEAE AML, Recurrent, Grade 4",200 mg QW,0
same,"TEAE AML, Recurrent, Grade 5",200 mg QW,0
same,"TEAE AST increased, Frequency",200 mg QW,1 (2.6%)
same,"TEAE AST increased, Grade 2",200 mg QW,1 (2.6%)
same,"TEAE AST increased, Grade 3",200 mg QW,0
same,"TEAE AST increased, Grade 4",200 mg QW,0
same,"TEAE AST increased, Grade 5",200 mg QW,0
same,"TEAE Abdominal pain, Frequency",200 mg QW,5 (12.8%)
same,"TEAE Abdominal pain, Grade 2",200 mg QW,1 (2.6%)
same,"TEAE Abdominal pain, Grade 3",200 mg QW,1 (2.6%)
same,"TEAE Abdominal pain, Grade 4",200 mg QW,0
same,"TEAE Abdominal pain, Grade 5",200 mg QW,0
same,"TEAE Acute GVHD, Frequency",200 mg QW,13 (33.3%)
same,"TEAE Acute GVHD, Grade 2",200 mg QW,5 (12.8%)
same,"TEAE Acute GVHD, Grade 3",200 mg QW,4 (10.3%)
same,"TEAE Acute GVHD, Grade 4",200 mg QW,2 (5.1%)
same,"TEAE Acute GVHD, Grade 5",200 mg QW,1(2.6%)
same,"TEAE Arthralgias, Frequency",200 mg QW,1 (2.6%)
same,"TEAE Arthralgias, Grade 2",200 mg QW,0
same,"TEAE Arthralgias, Grade 3",200 mg QW,0
same,"TEAE Arthralgias, Grade 4",200 mg QW,0
same,"TEAE Arthralgias, Grade 5",200 mg QW,0
same,"TEAE Back Pain, Frequency",200 mg QW,2 (5.1%)
same,"TEAE Back Pain, Grade 2",200 mg QW,2 (5.1%)
same,"TEAE Back Pain, Grade 3",200 mg QW,0
same,"TEAE Back Pain, Grade 4",200 mg QW,0
same,"TEAE Back Pain, Grade 5",200 mg QW,0
same,"TEAE Decreased appetite, Frequency",200 mg QW,3 (7.7%)
same,"TEAE Decreased appetite, Grade 2",200 mg QW,1 (2.6%)
same,"TEAE Decreased appetite, Grade 3",200 mg QW,0
same,"TEAE Decreased appetite, Grade 4",200 mg QW,0
same,"TEAE Decreased appetite, Grade 5",200 mg QW,0
same,"TEAE Diarrhea, Frequency",200 mg QW,13 (33.3%)
same,"TEAE Diarrhea, Grade 2",200 mg QW,5 (12.8%)
same,"TEAE Diarrhea, Grade 3",200 mg QW,2 (5.1%)
same,"TEAE Diarrhea, Grade 4",200 mg QW,0
same,"TEAE Diarrhea, Grade 5",200 mg QW,0
same,"TEAE Fatigue, Frequency",200 mg QW,5 (12.8%)
same,"TEAE Fatigue, Grade 2",200 mg QW,0
same,"TEAE Fatigue, Grade 3",200 mg QW,1 (2.6%)
same,"TEAE Fatigue, Grade 4",200 mg QW,0
same,"TEAE Fatigue, Grade 5",200 mg QW,0
same,"TEAE GGT Increased, Frequency",200 mg QW,0
same,"TEAE GGT Increased, Grade 2",200 mg QW,0
same,"TEAE GGT Increased, Grade 3",200 mg QW,0
same,"TEAE GGT Increased, Grade 4",200 mg QW,0
same,"TEAE GGT Increased, Grade 5",200 mg QW,0
same,"TEAE Generalized oedema, Frequency",200 mg QW,0
same,"TEAE Generalized oedema, Grade 2",200 mg QW,0
same,"TEAE Generalized oedema, Grade 3",200 mg QW,0
same,"TEAE Generalized oedema, Grade 4",200 mg QW,0
same,"TEAE Generalized oedema, Grade 5",200 mg QW,0
same,"TEAE Hyperbilirubinaemia, Frequency",200 mg QW,3 (7.7%)
same,"TEAE Hyperbilirubinaemia, Grade 2",200 mg QW,1 (2.6%)
same,"TEAE Hyperbilirubinaemia, Grade 3",200 mg QW,0
same,"TEAE Hyperbilirubinaemia, Grade 4",200 mg QW,1 (2.6%)
same,"TEAE Hyperbilirubinaemia, Grade 5",200 mg QW,0
same,"TEAE Hyperglycaemia, Frequency",200 mg QW,1 (2.6%)
same,"TEAE Hyperglycaemia, Grade 2",200 mg QW,0
same,"TEAE Hyperglycaemia, Grade 3",200 mg QW,1 (2.6%)
same,"TEAE Hyperglycaemia, Grade 4",200 mg QW,0
same,"TEAE Hyperglycaemia, Grade 5",200 mg QW,0
same,"TEAE Hyperkalemia, Frequency",200 mg QW,1 (2.6%)
same,"TEAE Hyperkalemia, Grade 2",200 mg QW,0
same,"TEAE Hyperkalemia, Grade 3",200 mg QW,0
same,"TEAE Hyperkalemia, Grade 4",200 mg QW,0
same,"TEAE Hyperkalemia, Grade 5",200 mg QW,0
same,"TEAE Hypocalcaemia, Frequency",200 mg QW,0
same,"TEAE Hypocalcaemia, Grade 2",200 mg QW,0
same,"TEAE Hypocalcaemia, Grade 3",200 mg QW,0
same,"TEAE Hypocalcaemia, Grade 4",200 mg QW,0
same,"TEAE Hypocalcaemia, Grade 5",200 mg QW,0
same,"TEAE Hypokalaemia, Frequency",200 mg QW,5 (12.8%)
same,"TEAE Hypokalaemia, Grade 2",200 mg QW,2 (5.1%)
same,"TEAE Hypokalaemia, Grade 3",200 mg QW,0
same,"TEAE Hypokalaemia, Grade 4",200 mg QW,0
same,"TEAE Hypokalaemia, Grade 5",200 mg QW,0
same,"TEAE Hyponatraemia, Frequency",200 mg QW,7 (17.9%)
same,"TEAE Hyponatraemia, Grade 2",200 mg QW,2 (5.1%)
same,"TEAE Hyponatraemia, Grade 3",200 mg QW,2 (5.1%)
same,"TEAE Hyponatraemia, Grade 4",200 mg QW,0
same,"TEAE Hyponatraemia, Grade 5",200 mg QW,0
same,"TEAE LFT Abnormal, Frequency",200 mg QW,2 (5.1%)
same,"TEAE LFT Abnormal, Grade 2",200 mg QW,0
same,"TEAE LFT Abnormal, Grade 3",200 mg QW,0
